Laboratory results taken from patent US5866597A, “Use of triazine compounds for the treatment of memory and learning disorders” (Glaxo Wellcome Inc., priority 1993, dated 1999).
Where two headings read alike, the source gives them in different places.

Key:
[1] = tested on: scopolamine-induced deficit in rats; assay: Light-dark box memory test in rats, scopolamine-induced deficit, single dose pre-training (Tables 3 and 4); format: in vivo, Male Wistar rats; conditions: for Mean latency Day 1 / Mean latency Day 2: ± SEM; for Effect on expected decrease in latency on retest: scopolamine 0.1 mg/kg
Description: (§1) Male Wistar rats obtained from Charles River were used. They were housed under controlled conditions (temperature 21±2 deg. C., humidity approx. 50%, 12 hour light/dark cycle, food and water ad lib) for one week before use. On the day before test the rats were permanently housed in groups of six. Food and water were supplied ad lib. On the test day, animals were weighed and then dosed either 30 minutes before test (midazolam), one hour before test (compound A) or immediately after test.
(§2) All drugs were dissolved or suspended in 0.25% (w/v) aqueous celacol, and administered orally (by gavage), i.p. or s.c. The dose volume was 5 ml/kg for all routes.
(§3) An identical apparatus to that described in Example 1 was used, except that the smaller box measured 370 mm×260 mm×190 mm.
(§4) This consisted of training as described for mice under section (d) of Example 1.
(§5) Test drugs or control fluids were given before or immediately after the training session.
(§6) This was as described under section (e) of Example 1.

[2] = tested on: scopolamine-induced deficit in mice; assay: Modified light-dark box memory test in mice, scopolamine-induced deficit, drug given pre-training (Table 1); format: in vivo, Male albino CD-1 mice; conditions: for Mean latency Day 1 / Mean latency Day 2: ± SEM
Description: (§7) Male albino CD-1 mice obtained from Charles River were used. They were housed under controlled conditions (temperature 21±2 deg. C., humidity approx. 50%, 12 hour light/dark cycle, food and water ad lib) for one week before use. On the day before test, the mice were housed in groups of six in polythene boxes in the laboratory and marked for identification. Food and water were supplied ad lib. On the test day, animals were weighed and then dosed either 30 minutes before test (piracetam, ondansetron) one hour before test (compound A) or immediately after test.
All drugs were dissolved or suspended in 0.25% (w/v) aqueous celacol, and administered orally (by gavage), i.p. or s.c. The dose volume was 10 ml/kg for all routes.
(§8) The apparatus consisted of two boxes with an opening 90 mm×60 mm at floor level between them. A plastic door was used to close the opening when required. The smaller box (290 mm×120 mm×120 mm high) was made of opaque plastics, open at the top to allow illumination by normal laboratory lighting. The larger box (305 mm square×280 mm high) was enclosed apart from the single opening.
(§9) This consisted of training, with retest 24 hours later. During training, animals were placed individually in the open box facing away from the end with the opening. After a period of exploration, they usually entered the dark box and the latency to entry in seconds was noted. The door to the dark box was closed, and after 30 seconds had elapsed, the animal was removed gently and returned to the holding box. Twenty-four hours later, an identical procedure was used, except that the session ended as soon as the animal had entered the dark box. The latency was again noted. During the interval, the animals were not handled, and were disturbed as little as possible. Each animal was used once only.
as §5
Group comparisons were made between latencies to enter the dark compartment on the first and second occasions. For both training and retest occasions, comparisons were made between vehicle and treatment groups. […] The difference between latencies on the two occasions is presented as % decrease on Day 2 compared with Day 1.
(§10) The mean latency to enter the dark box±standard error of the mean was calculated from a group of 12 animals. For a given treatment, figures in the columns labelled `Day 1` and `Day 2` show the mean latencies taken from the same group of animals. The difference between data obtained on the two days is illustrated by showing the % decrease, and the data compared using the Mann-Whitney U-test; NS indicates a p value>0.1.

[3] = tested on: scopolamine effect; conditions: cited from earlier work; for Reversal of the scopolamine effect: screen for nootropic compounds
[4] = tested on: scopolamine-induced deficit in rats; assay: Light-dark box memory test in rats, sub-acute dosing: pre-training, pre-training and pre-retest, or four pre-treatments and before training and retest (Table 5); format: in vivo, Male Wistar rats
Description: as §1
In the sub-acute dosing regimen (see `Procedure`) the rats, housed as above, received six doses of drug or vehicle by the oral route, each 24 hours apart.
as §2, §3, §4
The procedure was identical with that described above, except that seven groups of rats received compound A or control pre-treatment as 6 oral doses each 24 hours apart, as follows.
Training took place 1 hour after the fifth dose i.e. on day 5. […] The usual retest was performed 24 hours later (on day 6), one hour after the sixth oral treatment.
as §6
The mean latency to enter the dark box±standard error of the mean was calculated from a group of 24 animals (controls in first block) or 12 animals (all other treatments). For a given treatment, figures in the columns labelled `Day 5` and `Day 6` show the mean latencies taken from the same group of animals. The difference between data obtained on the two days is illustrated by showing the % decrease, and the data compared using the Mann-Whitney U-test.

[5] = tested on: scopolamine-induced deficit in mice; assay: Modified light-dark box memory test in mice, scopolamine-induced deficit, drug given immediately post-training (Table 2); format: in vivo, Male albino CD-1 mice; conditions: for Mean latency Day 1 / Mean latency Day 2: ± SEM
Description: as §7
[…] The dose volume was 10 ml/kg for all routes.
as §8, §9, §5
Group comparisons were made between latencies to enter the dark compartment on the first and second occasions. For both training and retest occasions, comparisons were made between vehicle and treatment groups. The distribution of latencies was skewed on both learning and retest trials (data not shown), so the non-parametric Mann-Whitney U-test was used. The difference between latencies on the two occasions is presented as % decrease on Day 2 compared with Day 1.
as §10

[6] = tested on: scopolamine-induced pupillary dilatation in rats; assay: Pupil diameter measurement in rats (Table 6); format: in vivo, Male Wistar rats
Description: (§11) 15 minutes before observation. Under these conditions, which were identical to those used in the learning experiments described in Example 2, changes in salivation and pupil diameter were measured. Salivation was measured by placing a piece of folded filter paper in the rat's mouth and measuring the diameter of the blot in mm after 1 minute. Pupil diameter was measured using a magnifying glass and graticule under normal lighting conditions. For both measures, comparisons were made between control and drug-treated groups using a Student's T-test on independent samples.
(§12) Groups of 6 animals were used.

[7] = tested on: scopolamine-induced dry mouth in rats; assay: Salivation measurement in rats (Table 6); format: in vivo, Male Wistar rats; conditions: scopolamine, vehicle-pretreated rats; p<0.01
Description: as §11, §12

[8] = isethionate salt, cited from earlier work
[9] = saline s.c. + midazolam 0.5 mg/kg i.p.
[10] = scopolamine 0.1 mg/kg s.c. + midazolam 0.5 mg/kg i.p.
[11] = scopolamine 1 mg/kg s.c. + celacol
[12] = scopolamine 1 mg/kg s.c. + saline (piracetam experiment)
[13] = scopolamine 0.1 mg/kg s.c. + celacol days 1-6, ± SEM
[14] = scopolamine 1 mg/kg s.c. + saline
[15] = scopolamine 0.1 mg/kg s.c. + celacol (Table 3)
[16] = scopolamine 0.1 mg/kg s.c. + saline (Table 4)
[17] = scopolamine 1 mg/kg s.c. + ondansetron 0.01 ug/kg i.p.
[18] = scopolamine 1 mg/kg s.c. + ondansetron 1.0 ug/kg i.p.
[19] = scopolamine 1 mg/kg s.c. + ondansetron 100 ug/kg i.p.
[20] = saline s.c. + piracetam 2000 mg/kg i.p.
[21] = scopolamine 1 mg/kg s.c. + piracetam 2000 mg/kg i.p.
[22] = saline s.c. + piracetam 2000 mg/kg i.p. post-training
[23] = scopolamine 1 mg/kg s.c. + piracetam 2000 mg/kg i.p. post-training

Cc1ncc2n1-c1ccc(Cl)cc1C(c1ccccc1F)=NC2 [Midazolam]
Reversal of scopolamine-induced deficit ([1]; midazolam 0.5 mg/kg i.p.): did not reverse the scopolamine-induced deficit
Difference between days, % Decrease ([1]; saline s.c. + midazolam 0.5 mg/kg i.p., p (0.09)): 29%
Mean latency Day 1 [1, 9]: 39.9 ± 4.9 s
Mean latency Day 2 [1, 9]: 28.2 ± 2.7 s
Difference between days, % Decrease ([1]; scopolamine 0.1 mg/kg s.c. + midazolam 0.5 mg/kg i.p., p NS): 9%
Mean latency Day 1 [1, 10]: 37.0 ± 4.0 s
Mean latency Day 2 [1, 10]: 33.6 ± 3.4 s

CN1[C@@H]2C[C@@H](OC(=O)[C@H](CO)c3ccccc3)C[C@H]1[C@@H]1O[C@@H]12 [Scopolamine]
Difference between days, % Decrease ([2]; scopolamine 1 mg/kg s.c. + celacol, p NS): -10%
Mean latency Day 1 [2, 11]: 18.8 ± 1.8 s
Mean latency Day 2 [2, 11]: 20.7 ± 2.3 s
Difference between days, % Decrease ([2]; scopolamine 1 mg/kg s.c. + saline (ondansetron experiment), p NS): -2%
Mean latency Day 1 ([2]; scopolamine 1 mg/kg s.c. + saline (ondansetron experiment)): 16.5 ± 1.3 s
Difference between days, % Decrease ([2]; scopolamine 1 mg/kg s.c. + saline (piracetam experiment), p NS): -27%
Mean latency Day 1 [2, 12]: 18.9 ± 1.4 s
Mean latency Day 2 [2, 12]: 24.0 ± 2.5 s
Effect on expected decrease in latency on retest ([2]; scopolamine 1 mg/kg, vehicle-treated mice): abolished this effect
Effect on memory ([3]; given before or immediately after a learning trial): can abolish the memory
Diff. between days, % ([4]; scopolamine 0.1 mg/kg s.c. + celacol days 1-6, p NS): -3%
Mean latency Day 5 [4, 13]: 33.5 ± 2.2 s
Mean latency Day 6 [4, 13]: 34.4 ± 2.5 s
Effect on expected decrease in mean latency ([4]; scopolamine 0.1 mg/kg, vehicle-treated rats): reversed by scopolamine
Difference between days, % Decrease ([5]; scopolamine 1 mg/kg s.c. + saline, p (0.07, up)): -36%
Mean latency Day 1 [5, 14]: 19.5 ± 2.3 s
Mean latency Day 2 [5, 14]: 26.5 ± 2.7 s
Mean pupil diameter ([6]; celacol p.o. + scopolamine 0.1 mg/kg s.c., ± SEM): 22.8 ± 1.65 mm × 10
Effect on pupil diameter ([6]; scopolamine, vehicle-pretreated rats, p<0.01): significantly increased pupil diameter
Effect on salivation [7]: reduced salivation
Difference between days, % Decrease ([1]; scopolamine 0.1 mg/kg s.c. + celacol (Table 3), p NS): 0%
Mean latency Day 1 [1, 15]: 44.4 ± 4.3 s
Mean latency Day 2 [1, 15]: 44.5 ± 3.7 s
Difference between days, % Decrease ([1]; scopolamine 0.1 mg/kg s.c. + saline (Table 4), p NS): -16%
Mean latency Day 1 [1, 16]: 34.4 ± 5.2 s
Mean latency Day 2 [1, 16]: 39.8 ± 4.5 s
Effect on expected decrease in latency on retest ([1]; vehicle-treated rats (Table 3)): reversed this effect
Effect on expected decrease in latency on retest ([1]; vehicle-treated rats (Table 4)): prevented this effect

Cc1nccn1CC1CCc2c(c3ccccc3n2C)C1=O (stereo not shown) [Ondansetron, 1,2,3,9-tetrahydro-9-methyl-3-[(2-methyl-1H-imidazol-1-yl)methyl]-4H-carbazol-4-one]
Difference between days, % Decrease ([2]; scopolamine 1 mg/kg s.c. + ondansetron 0.01 ug/kg i.p., p NS): -28%
Mean latency Day 1 [2, 17]: 15.6 ± 1.8 s
Mean latency Day 2 [2, 17]: 20.0 ± 1.9 s
Difference between days, % Decrease ([2]; scopolamine 1 mg/kg s.c. + ondansetron 1.0 ug/kg i.p., p NS): -5%
Mean latency Day 1 [2, 18]: 14.3 ± 1.4 s
Mean latency Day 2 [2, 18]: 14.9 ± 1.2 s
Difference between days, % Decrease ([2]; scopolamine 1 mg/kg s.c. + ondansetron 100 ug/kg i.p., p <0.05): 28%
Mean latency Day 1 [2, 19]: 16.3 ± 1.9 s
Mean latency Day 2 [2, 19]: 11.8 ± 1.5 s
Reversal of the scopolamine effect [3]: positive results

Nc1nnc(-c2cccc(Cl)c2Cl)c(N)n1 [3,5-diamino-6-(2,3-dichlorophenyl)-1,2,4-triazine isethionate]
Solubility [8]: good solubility
Solubility ([8]; listed as The salt with isethionic acid): particularly good solubility

NC(=O)CN1CCCC1=O [Piracetam]
Day 2 latency versus scopolamine-treated control animals ([2]; piracetam 2000 mg/kg i.p. + scopolamine, pre-training, p<0.05): significantly different
Difference between days, % Decrease ([2]; saline s.c. + piracetam 2000 mg/kg i.p., p <0.01): 44%
Mean latency Day 1 [2, 20]: 21.4 ± 4.7 s
Mean latency Day 2 [2, 20]: 12.1 ± 1.2 s
Difference between days, % Decrease ([2]; scopolamine 1 mg/kg s.c. + piracetam 2000 mg/kg i.p., p NS*): 27%
Mean latency Day 1 [2, 21]: 19.1 ± 2.4 s
Mean latency Day 2 [2, 21]: 13.9 ± 1.8 s
Reversal of the scopolamine effect [3]: positive results
Difference between days, % Decrease ([5]; saline s.c. + piracetam 2000 mg/kg i.p. post-training, p <0.05): 28%
Mean latency Day 1 [5, 22]: 18.8 ± 2.0 s
Mean latency Day 2 [5, 22]: 13.5 ± 1.7 s
Difference between days, % Decrease ([5]; scopolamine 1 mg/kg s.c. + piracetam 2000 mg/kg i.p. post-training, p NS*): 6%
Mean latency Day 1 [5, 23]: 19.2 ± 1.8 s
Mean latency Day 2 [5, 23]: 18.0 ± 1.8 s
